The experiment concerns the target Estrogen receptor (Rattus norvegicus) (UniProt P06211+Q62986). In words: Estrogenic potency in rats by subcutaneous dose relative to estradiol. It counts as functional.

Here are results for three compounds from ChEMBL document CHEMBL1124653, “11 beta-nitrate estrane analogues: potent estrogens” (1989).

Structures are written as SMILES.

`CC(=O)Oc1ccc2c(c1)CC[C@H]1[C@@H]3CCC(=O)[C@@]3(C)C[C@H](O[N+](=O)[O-])[C@]21O`: the Relative potency worked out at 4. As to `CC(=O)Oc1ccc2c(c1)C[C@@H](C)[C@@H]1[C@@H]2[C@@H](O[N+](=O)[O-])C[C@]2(C)C(=O)CC[C@@H]12` (stereo in doubt; 2b), the Relative potency was found to be 34.

Turning to `CC(=O)Oc1ccc2c(c1)C[C@@H](C)[C@@H]1[C@@H]2[C@@H](O[N+](=O)[O-])C[C@]2(C)C(=O)CC[C@@H]12` (stereo in doubt; 3b), the Relative potency was found to be 7470.
